The values below come from publication PMC12320299 (Chemical Science, 2025).

As a reminder, the IC50 is the concentration that inhibits the measured activity by half. A higher IC50 goes with a need for much substance.

Some results are limits rather than exact numbers.

Series [1] is described as follows: Total 101Ru content in tumour, organs and blood by ICP-MS. It is filed as in vivo, BALB/c mice. As to conditions: 4 h after last injection, 10 mg kg^−1 i.p. As to the method: Furthermore, tumour, organs and blood of the 1a-treated mice were collected 4 h after the last injection. […] Intraperitoneally administered compounds are primarily absorbed through the portal circulation, which can lead to a substantial liver exposure.[71] […] This paralleled earlier findings of other metal(arenes) in this tumour model.[72]
(§1) Animals. All experiments were carried out with male Balb/c mice according to the regulation of the Ethics Committee for the Care and Use of Laboratory Animals at the Medical University Vienna (BMWF-2022-0.770.291), the guidelines from the Austrian Animal Science Association and the Federation of European Laboratory Animal Science Associations (FELASA). The animals were kept in a pathogen-free conditions, controlled environment with 12 h light–dark cycle with ad libitum access to food and water. Every procedure was done in a laminar airflow […]
(§2) Treatment. CT-26 cells ([…] in 50 μL serum-free medium) were injected subcutaneously (s.c.) into the right flank of ten– to eleven-week-old male Balb/c mice. Three days after cell injection, all compounds (dissolved in 10% DMSO in water) were administered […]
1b/2b. Regarding anticancer activity experiments, mice were treated on 5 consecutive days over 2 weeks. Four hours after the last treatment 1a-treated mice were sacrificed and analysed for ruthenium levels in tissue via ICP-MS measurements. […]
Missing data points were imputed. Permutation-based FDR was set to 0.05 and S0 = 0.1 for multi-parameter corrected significance testing of protein regulation. […]
Resources (Version 6.8)13 and STRING (Version 10.0).14
Additionally, statistical analysis of protein regulations from the in vivo samples was performed using the LIMMA R-package.15 P-values where adjusted according to Benjamini-Hochberg16 and a gene set variation analysis was performed (GSVA).17 Protein Sets where constructed using the molecular signature database.18
Total metal content in organs harvested from 1a-treated mice was determined by inductively coupled plasma mass spectrometry (ICP-MS) on an Agilent 7800 instrument and Agilent SPS 4 autosampler using the following parameters: RF power 1550, carrier gas (Ar) 1.08 L∙min-1, plasma gas (Ar) 15 L∙min-1, dwell time 0.1 s, 12 replicates with 100 sweeps. A […]
by Agilent MassHunter (Version C.01.04) software.
The lower limit of quantification of the method was 0.071 µg L-1. Organs, tumour and blood were digested with nitric acid (20% w/w) and diluted with ultrapure water to reach a final nitric acid concentration <4%.

Series [2] in a line: Histological evaluation of liver (H&E). It is filed as in vivo, BALB/c mice. The settings on record: 10 mg kg^−1 i.p., five consecutive days. As to the method: Liver tissue for histological assessment was fixed with formaldehyde and then paraffin-embedded. Haematoxylin and eosin (H&E) was used to stain tissue slices.
as §1, §2
1b/2b. Regarding anticancer activity experiments, mice were treated on 5 consecutive days over 2 weeks. Four hours after the last treatment 1a-treated mice were sacrificed and analysed for ruthenium levels in tissue via ICP-MS measurements. In case of the proteomic profiling […]
in water for 5 consecutive days. On the last day, 2 h after the last treatment, mice were euthanized, and blood was collected in an EDTA tube via heart punctation. […]

The subject of series [3] is murine CT26 colon carcinoma cells. In words: MTT viability assay, CT26, 96 h. It is filed as cell-based. The settings on record: wildtype TP53. The procedure: removed and 100 µL DMSO was added to dissolve the formazan crystals. Photometric quantification was performed at 570 nm with a Multiskan Go 1510 photometer (Thermo Fisher […]
The absorbances were blank corrected and converted to relative proliferation. The IC50 values (concentration of 50% growth inhibition) were obtained using a sigmoidal fit of the experimental data and calculated as the mean ± standard deviation of at least three independent experiments, each in at least triplicates.
HCT116, HCT116 p53KO (each 2.000 cells/well) and CT-26 cells (500 cells/well) were seeded in 100 µL/well into flat-bottom 96-well plates (Starlab) and incubated at 37 °C for 96 h in a humidified incubator (Binder CB210) at 5% CO2. The test compound was dissolved in DMSO, serially diluted in the appropriate cell culture medium (see section above) to final DMSO concentrations of ≤0.5% v/v and 100 µL aliquots added to wells in triplicates. […] Optical densities were measured with a microplate reader (ELx808, Biotek) at a wavelength of 550 nm (and a reference wavelength of 690 nm) and blank corrected. […]
(each 3.000 cells/well) were seeded in 100 µL/well into flat-bottom 96-well plates (Starlab) and incubated at 37 °C for 24 h in a humidified incubator (Binder CB210) at 5% CO2. […] After 24 h of treatment, plates were measured by MTT assay as described above. […]

A short description of series [4]: Reactivity by NMR with 9-ethylguanine and methionine or cysteine. It is filed as physicochemical. The settings on record: 1 mM, equimolar nucleophiles, D2O/20% DMSO, up to 24 h. The procedure: Nevertheless, they are activated by hydrolysis of the most labile M–O bond (Fig. 2C).[48] Further hydrolysis releases the NQ ligand, because the free hemiaminal-containing NQ is unstable and the presence of biological nucleophiles accelerated NQ release.[48] […] The samples were analysed on a 500 MHz NMR spectrometer after 0 h, 1.5 h and 24 h. […] The aromatic proton of 9-ethylguanine was consistently found at 7.6 ppm.

For `CCC1=C2[O][Ru][O]C2(n2cccn2)c2ccccc2C1=O.Cc1ccc(C(C)C)cc1` (stereo not shown) [Compound 1a, [(3-ethyl-4-oxo-(pyrazolyl)-dihydronaphthalene)(cymene)ruthenium(II)]], in series [1], the “101Ru content, blood clot” value is less than 0.4 mg/kg; the “101Ru content, blood serum” value is less than 0.4 mg/kg; the “101Ru content, liver” value was determined as 10 ± 1 mg/kg; the “101Ru content, tumour” value turned out to be 0.9 ± 0.7 mg/kg. Besides, the “liver histology (H&E)” value in series [2] is on record as “largely healthy physiology”. In addition, half-maximal inhibition in series [3] (IC50) was put at 800 ± 150 nM. The “stability by NMR” value in series [4] is “remained remarkably stable”.
